We go through 14 compounds from PubChem BioAssay (NCI).

Common to all, as to experiment: NCI anticancer screen, dose series, 48 h
For assay [1], the system named is MDA-MB-231 breast.
The subject of assay [2] is T-47D breast.
The test system of assay [3] is COLO 205 colon.
In assay [4] the test system is HS 578T breast.
Assay [5] has as its system 786-0 renal.
Assay [6] relates to NCI/ADR-RES ovarian.

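Results reflect a 48-hour exposure of cells in 96-well plates to compound at five concentrations. GI50 = concentration required for 50% inhibition of growth. At the TGI there is no net growth.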

In the case of `O=C(Nc1cccc(C(F)(F)F)c1)c1ccc(NC2=C(Cl)C(=O)N(Cc3ccc(Cl)cc3Cl)C2=O)cc1`, the GI50 was 12.5 µM in assay [1]; 2.8 µM in assay [2]; 4.78 µM in assay [3]; 2.88 µM in assay [4]; 3.96 µM in assay [5]. Further, the TGI in assay [1] is 27.6 µM; in assay [2], greater than 100 µM; in assay [3] it was 24.2 µM; in assay [4], 8.26 µM; in assay [5], 14.3 µM.
With `CNCCOC(=O)/C=C1\CC[C@H]2[C@@H]([C@@H](O)C(=O)[C@@H]3[C@]2(C)CC[C@H](O)[C@]3(C)C(=O)OC)[C@H]1C`, the GI50 was 1.77 µM in assay [1]; 0.33 µM in assay [2]; 1.55 µM in assay [3]; 0.281 µM in assay [4]; 0.22 µM in assay [6]; 0.226 µM in assay [5]. Also, the TGI in assay [1] is 5.91 µM; in assay [2], 1.67 µM; in assay [3], 3.04 µM; in assay [4], 2.06 µM; in assay [6], 0.444 µM; in assay [5], 0.681 µM.
In the case of `NNC(=O)CNc1cccc(Br)c1`, the TGI in assay [1], in assay [2], in assay [3], in assay [4], in assay [6] and in assay [5] was greater than 100 µM throughout.
On to `Cc1nc(N)sc1N=Nc1ccccc1Br`, for which the TGI in assay [1] was 67 µM; in assay [2] it was 57.2 µM; in assay [3] it was greater than 93 µM; in assay [6], 72.5 µM; in assay [5], 69.5 µM.
With `CN(C)C1CCN(C(=O)c2ccc(NC(=O)Nc3ccc(-c4nc(N5CCOCC5)c5cccn5n4)cc3)cc2)CC1`, the GI50 in assay [1] is 0.0491 µM; in assay [2], 0.0134 µM; in assay [3] it was 0.0535 µM; in assay [4], 0.0192 µM; in assay [6] it was 59.5 µM; in assay [5], 0.31 µM. Also, the TGI in assay [1] was 11.1 µM; in assay [2], 0.0664 µM; in assay [3], 1.42 µM; in assay [4], 0.0926 µM; in assay [6] it was greater than 100 µM; in assay [5], 6.36 µM.
Take `CN(C)CC[C@H](CSc1ccccc1)Nc1ccc(S(=O)(=O)NC(=O)c2ccc(N3CCN(Cc4ccccc4-c4ccc(Cl)cc4)CC3)cc2)cc1[N+](=O)[O-]`: the GI50 in assay [1] is 1.55 µM; in assay [2], 5.87 µM; in assay [3], 2.12 µM; in assay [4], 6.87 µM; in assay [6], greater than 61.6 µM; in assay [5], 3.6 µM. Also, the TGI in assay [1] was 3.5 µM; in assay [2] it was greater than 60.4 µM; in assay [3] it was 4.7 µM; in assay [4], greater than 100 µM; in assay [6], greater than 100 µM; in assay [5] it was 15.1 µM.
Take `O=C(Cc1ccc(F)c(Cl)c1)Nc1cc(C2(C(F)(F)F)CC2)nn1CC1CCCCC1`: the GI50 in assay [1] is 2.82 µM; in assay [2], 3.78 µM; in assay [3] it was 2.59 µM; in assay [4], 2.13 µM; in assay [6], 3.88 µM; in assay [5], 4.34 µM. The TGI is 6.68 µM in assay [1]; 13.6 µM in assay [2]; 5.41 µM in assay [3]; 9.45 µM in assay [4]; greater than 15 µM in assay [6]; greater than 15 µM in assay [5].
As to `NC(N)=NCCCC(=O)O`, the TGI in assay [1], in assay [2], in assay [3], in assay [4], in assay [6] and in assay [5] was greater than 100 µM each time.
As for `CCn1c(O)c(/C=N/NC(=O)C(C)c2ccc(CC(C)C)cc2)sc1=S` (centres undefined), the GI50 in assay [1] was 0.515 µM; in assay [2], 0.56 µM; in assay [3], 1.23 µM; in assay [4], 0.294 µM; in assay [6], 0.276 µM; in assay [5] it was 0.606 µM. The TGI in assay [1] was 7.59 µM; in assay [2], greater than 100 µM; in assay [3], 9.04 µM; in assay [4] it was greater than 40.5 µM; in assay [6] it was greater than 38.8 µM; in assay [5] it was greater than 40.9 µM.
Regarding `Cc1nnc(Nc2ccc(NC(=O)Nc3ccc(Cl)cc3)cc2)c2ccccc12`, the GI50 in assay [1] was 2.38 µM; in assay [2], 2.06 µM; in assay [3], 2.22 µM; in assay [4] it was 2.52 µM; in assay [6], 3.63 µM; in assay [5] it was 1.71 µM. Further, the TGI in assay [1] was 5.94 µM; in assay [2], 5.08 µM; in assay [3], 5.29 µM; in assay [4], 6.4 µM; in assay [6], 14.9 µM; in assay [5], 3.34 µM.
With `C=CCC1(c2ccc(OC)cc2)C=CC(=O)CC1` (centres undefined), the TGI in assay [1], in assay [2], in assay [3], in assay [4], in assay [6] and in assay [5] was greater than 100 µM each time.
For the compound `COc1ccc(-c2ccc(=O)oc2C#Cc2cc(OC)c(OC)c(OC)c2)cc1O`, the GI50 in assay [1] is 0.905 µM; in assay [2] it was 6.4 µM; in assay [3], 4.05 µM; in assay [4], 0.696 µM; in assay [6], 0.262 µM; in assay [5], 1.18 µM. The TGI in assay [1] was 10.1 µM; in assay [2], greater than 100 µM; in assay [3], greater than 40.4 µM; in assay [4] it was greater than 100 µM; in assay [6] it was greater than 43.8 µM; in assay [5] it was greater than 100 µM.
`COc1cc(N(CCC#N)CCC#N)ccc1/C(N=Nc1ccc(Cl)cc1)=N/NC(=O)c1cc(Br)ccc1O`: the GI50 in assay [1] is 38.8 mg/L; in assay [2] it was 69.9 mg/L; in assay [3] it was 41.7 mg/L; in assay [4] it was 125 mg/L; in assay [6], 53.2 mg/L; in assay [5], 77.1 mg/L. Besides, the TGI in assay [1] is greater than 150 mg/L; in assay [2], greater than 150 mg/L; in assay [3] it was 127 mg/L; in assay [4], greater than 150 mg/L; in assay [6] it was greater than 150 mg/L; in assay [5], greater than 150 mg/L.
With `CCOc1ccc(/C=C2\N=C(c3ccc([N+](=O)[O-])cc3)OC2=O)cc1`, the TGI in assay [1], in assay [2], in assay [3], in assay [4] and in assay [5] was greater than 100 µM throughout.
